# From patent US9458181B2, “Cathepsin cysteine protease inhibitors” (Merck Sharp & Dohme Corp., priority 2013, dated 2016)
# pIC50: −log10 of the molar value.
# Assays:
# human cathepsin F = target: T1, human cathepsin F (Homo sapiens, UniProt Q9UBX1); assay: Cathepsin F assay (hCat F); assay type: biochemical; conditions: human cathepsin F 10 nM, Z-Phe-Arg-AMC 8 μM, pH 5.5, 15 min preincubation; read-out: hCat F IP
# T1 sequence (Q9UBX1 271-484): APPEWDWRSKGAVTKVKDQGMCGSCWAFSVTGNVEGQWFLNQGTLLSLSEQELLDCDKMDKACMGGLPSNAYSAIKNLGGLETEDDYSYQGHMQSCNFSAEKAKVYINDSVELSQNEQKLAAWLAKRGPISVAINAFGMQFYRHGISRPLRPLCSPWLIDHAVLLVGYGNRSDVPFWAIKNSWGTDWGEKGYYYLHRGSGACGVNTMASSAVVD
# How it was run: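 Fluorogenic read-out: cleavage of Z-Phe-Arg-AMC (8 μM in added buffer) was followed at Ex 360/Em 460 nm for 20 min, with dose-response fitting of percent inhibition. Before substrate addition, 10 nM human enzyme was incubated 15 min at room temperature with compounds (DMSO stocks 500–0.025 μM) in pH 5.5 MES/EDTA/DTT buffer containing 10% DMSO.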
# human cathepsin K = human cathepsin K (UniProt P43236); assay: Cathepsin K Assay (hrbCat K); assay type: biochemical; conditions: human cathepsin K 0.4 nM, Z-Leu-Arg-AMC 8 μM, pH 5.5, 15 min preincubation; read-out: hrbCat K IP
# How it was run: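 Human cathepsin K (0.4 nM) in pH 5.5 MES buffer with EDTA, DTT and 10% DMSO was preincubated 15 min at room temperature with compound from a ⅓ dilution series (500-0.025 μM DMSO stocks). Z-Leu-Arg-AMC (8 μM) was then added, and AMC release was followed fluorometrically (Ex 360/Em 460 nm) for 30 min; inhibition was fitted to a dose-response model.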
pIC50 (human cathepsin F),pIC50 (human cathepsin K),Structure (SMILES)
7.09,9.27,"CC(C)(C)c1nc(-c2ccc(N3CCS(=O)(=O)CC3)cc2)c([C@@H]2CCC(F)(F)C[C@H]2C(=O)NC2(C#N)CC2)o1 [Example 19, (1R,2R)-2-(2-(tert-butyl)-4-(4-(1,1-dioxidothiomorpholino)phenyl)oxazol-5-yl)-N-(1-cyanocyclopropyl)-5,5-difluorocyclohexane-carboxamide]"
7.15,9.55,"N#CC1(NC(=O)[C@@H]2CC(F)(F)CC[C@H]2c2oc(-c3ccc(F)cc3)nc2-c2ccc(N3CCS(=O)(=O)CC3)cc2)CC1 [Example 20, (1R,2R)-N-(1-cyanocyclopropyl)-2-(4-(4-(1,1-dioxidothiomorpholino)phenyl)-2-(4-fluorophenyl)oxazol-5-yl)-5,5-difluorocyclohexane-carboxamide]"
≤ 5.00,7.21,"Cc1nc(-c2ccc(C(=O)NC3(C#N)CC3)cc2)c([C@@H]2CCCC[C@H]2C(=O)NC2(C#N)CC2)o1 [Example 21, N-(1-cyanocyclopropyl)-4-(5-((1R,2R)-2-((1-cyanocyclopropyl)carbamoyl)cyclohexyl)-2-methyloxazol-4-yl)benzamide]"
5.21,8.29,"Cc1nc(-c2ccc(C(=O)N3CCOCC3)cc2)c([C@@H]2CCCC[C@H]2C(=O)NC2(C#N)CC2)o1 [Example 22, (1R,2R)-N-(1-cyanocyclopropyl)-2-(2-methyl-4-(4-(morpholine-4-carbonyl)phenyl)oxazol-5-yl)cyclohexanecarboxamide]"
6.42,9.21,"CS(=O)(=O)C1CN(c2ccc(-c3nc(C(F)(F)C(F)(F)F)oc3[C@@H]3CCCC[C@H]3C(=O)NC3(C#N)CC3)cc2)C1 [Example 23, (1R,2R)-N-(1-cyanocyclopropyl)-2-(4-(4-(3-(methylsulfonyl)azetidin-1-yl)phenyl)-2-(perfluoroethyl)oxazol-5-yl)cyclohexanecarboxamide]"
6.74,9.17,"N#CC1(NC(=O)[C@@H]2CC(F)(F)CC[C@H]2c2oc(-c3ccc(F)cc3)nc2-c2ccc(C(=O)N3CCOCC3)cc2)CC1 [Example 24, (1R,2R)-N-(1-cyanocyclopropyl)-5,5-difluoro-2-(2-(4-fluorophenyl)-4-(4-(morpholine-4-carbonyl)phenyl)oxazol-5-yl)cyclohexanecarboxamide]"
6.35,9.18,CS(=O)(=O)C1CN(c2ccc(-c3nc(C(F)(F)F)oc3[C@@H]3CCCC[C@H]3C(=O)NC3(C#N)CC3)cc2)C1 [Example 25]
5.53,8.44,"N#CC1(NC(=O)[C@@H]2CCCC[C@H]2c2oc(C(F)(F)C(F)(F)F)nc2-c2ccc(C(=O)N3CCOCC3)cc2)CC1 [Example 26, (1R,2R)-N-(1-cyanocyclopropyl)-2-(4-(4-(morpholine-4-carbonyl)phenyl)-2-(perfluoroethyl)oxazol-5-yl)cyclohexanecarboxamide]"
6.17,9.43,"N#CC1(NC(=O)[C@@H]2CCCC[C@H]2c2oc(-c3ccc(F)cc3F)nc2-c2ccc(N3CCS(=O)(=O)CC3)cc2)CC1 [Example 27, (1R,2R)-N-(1-cyanocyclopropyl)-2-(2-(2,4-difluorophenyl)-4-(4-(1,1-dioxidothiomorpholino)phenyl)oxazol-5-yl)cyclohexanecarboxamide]"
5.86,8.90,"N#CC1(NC(=O)[C@@H]2CCCC[C@H]2c2oc(-c3ccccn3)nc2-c2ccc(N3CCS(=O)(=O)CC3)cc2)CC1 [Example 28, (1R,2R)-N-(1-cyanocyclopropyl)-2-(4-(4-(1,1-dioxidothiomorpholino)phenyl)-2-(pyridin-2-yl)oxazol-5-yl)cyclohexanecarboxamide]"
6.25,9.32,"N#CC1(NC(=O)[C@@H]2CCCC[C@H]2c2oc(-c3cccnc3)nc2-c2ccc(N3CCS(=O)(=O)CC3)cc2)CC1 [Example 29, (1R,2R)-N-(1-cyanocyclopropyl)-2-(4-(4-(1,1-dioxidothiomorpholino)phenyl)-2-(pyridin-3-yl)oxazol-5-yl)cyclohexanecarboxamide]"
6.12,9.37,"N#CC1(NC(=O)[C@@H]2CCCC[C@H]2c2oc(-c3ccncc3F)nc2-c2ccc(N3CCS(=O)(=O)CC3)cc2)CC1 [Example 30, (1R,2R)-N-(1-cyanocyclopropyl)-2-(4-(4-(1,1-dioxidothiomorpholino)phenyl)-2-(3-fluoropyridin-4-yl)oxazol-5-yl)cyclohcxanecarboxamide]"
5.86,9.21,"N#CC1(NC(=O)[C@@H]2C[C@@H](F)CC[C@H]2c2oc(-c3ccc(F)cc3)nc2-c2ccc(N3CCS(=O)(=O)CC3)cc2)CC1 [Example 31, (1R,2R,5S)-N-(1-cyanocyclopropyl)-2-(4-(4-(1,1-dioxidothiomorpholino)phenyl)-2-(4-fluorophenyl)oxazol-5-yl)-5-fluorocyclohexane-carboxamide]"
5.60,8.51,"N#CC1(NC(=O)[C@@H]2CCCC[C@H]2c2oc(-c3ccc(F)cn3)nc2-c2ccc(N3CCS(=O)(=O)CC3)cc2)CC1 [Example 32, (1R,2R)-N-(1-cyanocyclopropyl)-2-(4 (4-(1,1-dioxidothiomorpholino)phenyl)-2-(5-fluoropyridin-2-yl)oxazol-5-yl)cyclohexanecarboxamide]"
5.88,8.70,"N#CC1(NC(=O)[C@@H]2CCCC[C@H]2c2oc(-c3cncc(F)c3)nc2-c2ccc(N3CCS(=O)(=O)CC3)cc2)CC1 [Example 33, (1R,2R)-N-(1-cyanocyclopropyl)-2-(4-(4-(1,1-dioxidothiomorpholino)phenyl)-2-(5-fluoropyridin-3-yl)oxazol-5-yl)cyclohexanecarboxamide]"
6.35,9.07,"N#CC1(NC(=O)[C@@H]2CCCC[C@H]2c2oc(-c3cc(F)cc(F)c3)nc2-c2ccc(N3CCS(=O)(=O)CC3)cc2)CC1 [Example 34, (1R,2R)-N-(1-cyanocyclopropyl)-2-(2-(3,5-difluorophenyl)-4-(4-(1,1-dioxidothiomorpholino)phenyl)oxazol-5-yl) cyclohexanecarboxamide]"
6.00,8.95,"N#CC1(NC(=O)[C@@H]2CCCC[C@H]2c2oc(-c3cncnc3)nc2-c2ccc(N3CCS(=O)(=O)CC3)cc2)CC1 [Example 35, (1R,2R)-N-(1-cyanocyclopropyl)-2-(4-(4-(1,1-dioxidothiomorpholino)phenyl)-2-(pyrimidin-5-yl)oxazol-5-yl) cyclohexanecarboxamide]"
6.42,9.03,"N#CC1(NC(=O)[C@@H]2CCCC[C@H]2c2oc(-c3ccc(F)c(Cl)c3)nc2-c2ccc(N3CCS(=O)(=O)CC3)cc2)CC1 [Example 36, (1R,2R)-2-(2-(3-chloro-4-fluorophenyl)-4-(4-(1,1-dioxidothiomorpholino)phenyl)oxazol-5-yl)-N-(1-cyanocyclopropyl) cyclohexanecarboxamide]"
6.45,9.14,"N#CC1(NC(=O)[C@@H]2CCCC[C@H]2c2oc(-c3ccc(F)cc3Cl)nc2-c2ccc(N3CCS(=O)(=O)CC3)cc2)CC1 [Example 37, (1R,2R)-2-(2-(2-chloro-4-fluorophenyl)-4-(4-(1,1-dioxidothiomorpholino)phenyl)oxazol-5-yl)-N-(1-cyanocyclopropyl) cyclohexanecarboxamide]"
6.51,8.89,"N#CC1(NC(=O)[C@@H]2CCCC[C@H]2c2oc(-c3ccc(Cl)cc3)nc2-c2ccc(N3CCS(=O)(=O)CC3)cc2)CC1 [Example 38, (1R,2R)-2-(2-(4-chlorophenyl)-4-(4-(1,1-dioxidothiomorpholino)phenyl)oxazol-5-yl)-N-(1-cyanocyclopropyl) cyclohexanecarboxamide]"
6.15,8.68,"CS(=O)(=O)C1CN(c2ccc(-c3nc(-c4ccc(F)cc4F)oc3[C@@H]3CCCC[C@H]3C(=O)NC3(C#N)CC3)cc2)C1 [Example 39, (1R,2R)-N-(1-cyanocyclopropyl)-2-(2-(2,4-difluorophenyl)-4-(4-(3-(methylsulfonyl)azetidin-1-yl)phenyl)oxazol-5-yl) cyclohexanecarboxamide]"
5.65,8.85,"N#CC1(NC(=O)[C@@H]2CCCC[C@H]2c2oc(-c3ccc(C(F)(F)F)nc3)nc2-c2ccc(N3CCS(=O)(=O)CC3)cc2)CC1 [Example 40, (1R,2R)-N-(1-cyanocyclopropyl)-2-(4-(4-(1,1 dioxidothiomorpholino)phenyl)-2-(6-(trifluoromethyl)pyridin-3-yl)oxazol-5-yl)cyclohexane carboxamide]"
5.66,8.85,"N#CC1(NC(=O)[C@@H]2C[C@@H](F)CC[C@H]2c2oc(-c3ccc(F)cc3F)nc2-c2ccc(N3CCS(=O)(=O)CC3)cc2)CC1 [Example 41, (1R,2R,5S)-N-(1-cyanocyclopropyl)-2-(2-(2,4-difluorophenyl)-4-(4-(1,1-dioxidothiomorpholino)phenyl)oxazol-5-yl)-5-fluorocyclohexane-carboxamide]"
